In ChEMBL document CHEMBL1909046, “DrugMatrix in vitro pharmacology data” one finds IC50 and Ki data, which are given here for 4 molecules.

Data set [1] addresses Aldo-keto reductase family 1 member B1 (Rattus norvegicus, UniProt P07943). Format: tissue-based, Lens of camera-type eye.
Data set [2] addresses T1, 5-hydroxytryptamine receptor 2C (Homo sapiens, UniProt P28335).
T1 sequence (P28335 whole entry): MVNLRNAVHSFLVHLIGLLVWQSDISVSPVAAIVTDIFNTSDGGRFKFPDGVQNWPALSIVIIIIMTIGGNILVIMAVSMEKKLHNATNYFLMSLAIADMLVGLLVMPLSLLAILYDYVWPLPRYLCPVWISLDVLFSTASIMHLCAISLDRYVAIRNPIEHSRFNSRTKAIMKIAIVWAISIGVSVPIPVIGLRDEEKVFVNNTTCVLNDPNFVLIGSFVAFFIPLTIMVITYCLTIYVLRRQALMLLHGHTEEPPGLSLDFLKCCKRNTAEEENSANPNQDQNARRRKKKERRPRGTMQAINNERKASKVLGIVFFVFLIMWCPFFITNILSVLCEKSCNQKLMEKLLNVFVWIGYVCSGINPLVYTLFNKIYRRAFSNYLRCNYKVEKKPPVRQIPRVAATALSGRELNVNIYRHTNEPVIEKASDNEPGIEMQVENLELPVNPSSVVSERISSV
The data set is described as follows: DRUGMATRIX: Serotonin (5-Hydroxytryptamine) 5-HT2C radioligand binding (ligand: [3H] Mesulergine). Format: cell membranes, CHO-K1, Membrane. The note with it: cho-k1; Not Active = under 50% inhibition at 10 µM.

A short description of data set [3]: DRUGMATRIX: Serotonin (5-Hydroxytryptamine) 5-HT3 radioligand binding (ligand: [3H] GR-65630). Format: cell membranes, Membrane. The note with it: hek293, Not Active = under 50% inhibition at 10 µM.
Data set [4] is described as follows: DRUGMATRIX: GABAA, Chloride Channel, TBOB radioligand binding (ligand: [3H] TBOB). Format: cell membranes, Rattus norvegicus, Wistar, Cerebral cortex, Membrane. Particulars: Not Active = under 50% inhibition at 10 µM.
The nature of data set [5]: DRUGMATRIX: Glutamate, NMDA, Agonism radioligand binding (ligand: [3H] CGP-39653). Format: cell membranes, Rattus norvegicus, Wistar, Cerebral cortex, Membrane. The note with it: Not Active = under 50% inhibition at 10 µM.
The target in a further data set is Insulin receptor (Rattus norvegicus, UniProt P15127). Format: cell membranes, Wistar, Liver, Membrane. Also: in other assays of this panel Not Active means under 50% inhibition at 10 µM.
Insulin receptor, sequence (P15127 27-759 limits assumed): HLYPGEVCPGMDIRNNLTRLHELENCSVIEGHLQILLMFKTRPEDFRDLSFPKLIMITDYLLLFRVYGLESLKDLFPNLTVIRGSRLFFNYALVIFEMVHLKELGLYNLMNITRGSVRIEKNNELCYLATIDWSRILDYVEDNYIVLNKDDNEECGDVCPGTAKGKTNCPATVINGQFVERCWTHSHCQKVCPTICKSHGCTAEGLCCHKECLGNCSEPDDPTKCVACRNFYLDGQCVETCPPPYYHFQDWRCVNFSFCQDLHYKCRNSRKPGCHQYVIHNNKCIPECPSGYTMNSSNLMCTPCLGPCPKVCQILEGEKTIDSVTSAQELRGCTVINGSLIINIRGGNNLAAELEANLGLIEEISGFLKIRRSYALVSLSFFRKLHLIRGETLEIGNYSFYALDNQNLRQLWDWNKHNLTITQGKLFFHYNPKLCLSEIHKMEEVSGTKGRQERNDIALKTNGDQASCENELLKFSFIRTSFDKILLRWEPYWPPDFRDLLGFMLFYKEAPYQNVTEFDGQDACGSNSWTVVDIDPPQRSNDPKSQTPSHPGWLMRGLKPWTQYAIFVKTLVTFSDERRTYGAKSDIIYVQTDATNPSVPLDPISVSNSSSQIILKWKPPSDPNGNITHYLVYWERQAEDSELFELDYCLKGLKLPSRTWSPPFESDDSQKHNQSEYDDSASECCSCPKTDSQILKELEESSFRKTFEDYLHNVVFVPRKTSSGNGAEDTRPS
Insulin receptor, sequence (P15127 764-1383 limits assumed): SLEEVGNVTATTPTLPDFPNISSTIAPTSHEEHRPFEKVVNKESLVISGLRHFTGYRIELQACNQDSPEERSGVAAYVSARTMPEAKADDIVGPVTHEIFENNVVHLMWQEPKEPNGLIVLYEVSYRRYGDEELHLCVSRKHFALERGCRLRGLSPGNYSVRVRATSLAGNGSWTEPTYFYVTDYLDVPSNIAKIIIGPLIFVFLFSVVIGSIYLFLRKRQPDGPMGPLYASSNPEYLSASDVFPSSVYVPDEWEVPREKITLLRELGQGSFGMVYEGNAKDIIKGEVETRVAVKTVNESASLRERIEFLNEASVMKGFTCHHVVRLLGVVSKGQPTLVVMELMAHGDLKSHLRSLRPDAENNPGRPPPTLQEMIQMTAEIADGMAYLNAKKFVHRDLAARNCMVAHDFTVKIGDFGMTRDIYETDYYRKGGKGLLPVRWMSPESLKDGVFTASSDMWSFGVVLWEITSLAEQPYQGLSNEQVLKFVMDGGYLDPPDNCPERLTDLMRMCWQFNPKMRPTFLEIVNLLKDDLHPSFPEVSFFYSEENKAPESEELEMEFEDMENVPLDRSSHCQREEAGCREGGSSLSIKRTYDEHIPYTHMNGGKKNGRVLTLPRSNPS
Data set [6] can be described thus: DRUGMATRIX: Leukotriene, BLT (LTB4) radioligand binding (ligand: [3H]LTB4). Format: cell membranes, Membrane. Particulars: u-937; Not Active = under 50% inhibition at 10 µM.
A further data set addresses T2, Leukotriene C4 synthase (Cavia porcellus, UniProt A6XA80).
T2 sequence (A6XA80 whole entry): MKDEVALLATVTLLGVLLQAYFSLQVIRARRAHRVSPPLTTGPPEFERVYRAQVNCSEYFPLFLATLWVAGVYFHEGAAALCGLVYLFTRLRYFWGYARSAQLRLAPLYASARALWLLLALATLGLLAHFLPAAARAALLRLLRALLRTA
The data set can be described thus: biochemical. Format: tissue-based, Lung.

The target in another data set is Melanocortin receptor 3 (Homo sapiens, UniProt P41968). Format: cell membranes, Membrane. The note with it: hek293. Also: in other assays of this panel Not Active means under 50% inhibition at 10 µM.
Melanocortin receptor 3, sequence (P41968 whole entry): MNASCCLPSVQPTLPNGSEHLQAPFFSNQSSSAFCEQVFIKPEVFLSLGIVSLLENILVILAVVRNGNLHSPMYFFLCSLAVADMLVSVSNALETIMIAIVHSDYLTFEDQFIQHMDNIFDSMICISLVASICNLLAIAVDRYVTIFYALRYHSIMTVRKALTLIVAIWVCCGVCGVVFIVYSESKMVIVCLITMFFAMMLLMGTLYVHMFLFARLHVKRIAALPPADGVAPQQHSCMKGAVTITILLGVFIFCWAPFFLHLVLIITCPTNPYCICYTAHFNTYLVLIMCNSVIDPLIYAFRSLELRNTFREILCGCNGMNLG
Data set [7] has as its target T3, Muscarinic acetylcholine receptor M5 (Homo sapiens, UniProt P08912). Also: in other assays of this panel Not Active means under 50% inhibition at 10 µM.
T3 sequence (P08912 whole entry): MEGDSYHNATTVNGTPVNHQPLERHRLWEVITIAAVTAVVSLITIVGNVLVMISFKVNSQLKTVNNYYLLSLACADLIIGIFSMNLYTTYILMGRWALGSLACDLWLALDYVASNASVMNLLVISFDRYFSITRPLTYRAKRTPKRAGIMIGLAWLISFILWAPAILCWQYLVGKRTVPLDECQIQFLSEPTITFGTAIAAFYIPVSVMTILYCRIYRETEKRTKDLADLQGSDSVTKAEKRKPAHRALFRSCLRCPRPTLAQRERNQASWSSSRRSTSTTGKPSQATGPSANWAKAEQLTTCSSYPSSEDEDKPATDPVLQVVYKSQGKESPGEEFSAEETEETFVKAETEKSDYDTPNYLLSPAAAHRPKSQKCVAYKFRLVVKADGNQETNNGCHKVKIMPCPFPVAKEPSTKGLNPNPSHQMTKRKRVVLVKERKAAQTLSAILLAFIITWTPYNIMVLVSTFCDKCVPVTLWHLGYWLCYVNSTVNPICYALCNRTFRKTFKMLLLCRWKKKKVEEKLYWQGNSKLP
Format: cell membranes, CHO-K1, Membrane.

The target in data set [8] is Delta-type opioid receptor (Homo sapiens, UniProt P41143). Format: cell membranes, HEK293, Membrane. The note with it: hek293. Also: in other assays of this panel Not Active means under 50% inhibition at 10 µM.
Delta-type opioid receptor, sequence (P41143 whole entry): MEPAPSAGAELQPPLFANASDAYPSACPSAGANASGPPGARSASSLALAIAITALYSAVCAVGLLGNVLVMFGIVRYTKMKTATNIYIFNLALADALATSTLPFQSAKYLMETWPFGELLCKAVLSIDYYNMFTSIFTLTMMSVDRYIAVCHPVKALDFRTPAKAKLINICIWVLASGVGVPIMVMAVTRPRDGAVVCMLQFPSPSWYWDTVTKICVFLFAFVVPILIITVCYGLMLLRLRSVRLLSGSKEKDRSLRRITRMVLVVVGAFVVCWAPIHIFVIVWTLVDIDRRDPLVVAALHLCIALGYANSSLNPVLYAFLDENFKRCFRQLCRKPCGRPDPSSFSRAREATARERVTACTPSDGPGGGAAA
In a further data set the target is Mu-type opioid receptor (Homo sapiens, UniProt P35372). The data set can be described thus: DRUGMATRIX: Opiate mu (OP3, MOP) radioligand binding (ligand: [3H] Diprenorphine). Format: cell membranes, CHO-K1, Membrane. Particulars: cho-k1; Not Active = under 50% inhibition at 10 µM.
Mu-type opioid receptor, sequence (P35372 whole entry): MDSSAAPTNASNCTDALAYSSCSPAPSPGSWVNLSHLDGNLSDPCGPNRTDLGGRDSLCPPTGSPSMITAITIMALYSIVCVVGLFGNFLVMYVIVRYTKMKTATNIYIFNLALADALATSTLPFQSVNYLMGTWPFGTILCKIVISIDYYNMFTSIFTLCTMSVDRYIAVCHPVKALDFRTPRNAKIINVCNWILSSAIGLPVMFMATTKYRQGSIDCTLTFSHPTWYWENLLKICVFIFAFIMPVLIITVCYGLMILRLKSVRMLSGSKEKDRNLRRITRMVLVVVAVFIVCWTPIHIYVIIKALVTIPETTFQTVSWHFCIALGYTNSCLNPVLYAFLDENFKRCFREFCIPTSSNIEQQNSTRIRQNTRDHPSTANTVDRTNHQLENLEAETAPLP
For data set [9], the target named is T4, 5-hydroxytryptamine receptor 1A (Rattus norvegicus, UniProt P19327). Also: in other assays of this panel Not Active means under 50% inhibition at 10 µM.
T4 sequence (P19327 whole entry): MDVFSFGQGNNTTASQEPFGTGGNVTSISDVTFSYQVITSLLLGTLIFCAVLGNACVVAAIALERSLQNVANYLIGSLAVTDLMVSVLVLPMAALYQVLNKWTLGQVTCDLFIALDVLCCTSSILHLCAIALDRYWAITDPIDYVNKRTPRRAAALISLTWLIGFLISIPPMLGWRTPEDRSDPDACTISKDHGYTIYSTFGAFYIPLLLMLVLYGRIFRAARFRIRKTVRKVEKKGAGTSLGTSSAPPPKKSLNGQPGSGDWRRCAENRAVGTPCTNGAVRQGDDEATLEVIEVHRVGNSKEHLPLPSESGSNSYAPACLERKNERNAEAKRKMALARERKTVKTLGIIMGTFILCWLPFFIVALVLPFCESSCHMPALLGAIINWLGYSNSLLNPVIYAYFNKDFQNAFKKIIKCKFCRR
Format: cell membranes, CHO-K1, Membrane. Particulars: cho-k1.

Another data set concerns the target T5, Cytochrome P450 2A6 (Homo sapiens, UniProt P11509). Also: in other assays of this panel Not Active means under 50% inhibition at 10 µM.
T5 sequence (P11509 whole entry): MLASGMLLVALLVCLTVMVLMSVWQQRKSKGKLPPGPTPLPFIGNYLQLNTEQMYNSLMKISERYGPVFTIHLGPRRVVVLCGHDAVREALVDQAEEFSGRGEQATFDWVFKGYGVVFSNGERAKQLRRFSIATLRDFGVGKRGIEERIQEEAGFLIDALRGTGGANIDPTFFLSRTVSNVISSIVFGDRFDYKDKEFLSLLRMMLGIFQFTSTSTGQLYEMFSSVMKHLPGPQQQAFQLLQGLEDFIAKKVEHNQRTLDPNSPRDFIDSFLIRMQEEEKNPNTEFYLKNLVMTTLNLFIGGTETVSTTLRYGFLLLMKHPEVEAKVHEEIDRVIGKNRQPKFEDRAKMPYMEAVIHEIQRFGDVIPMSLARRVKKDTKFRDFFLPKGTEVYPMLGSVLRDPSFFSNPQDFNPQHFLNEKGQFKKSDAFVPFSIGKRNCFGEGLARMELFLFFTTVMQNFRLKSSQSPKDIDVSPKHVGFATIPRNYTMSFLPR
Particulars: bti-tn-5b1-4.

`CN1[C@@H]2CC[C@H]1C[C@@H](OC(=O)c1c[nH]c3ccccc13)C2` [TROPISETRON]: the IC50 result in data set [1] was “Not Active”; in data set [2], “Not Active”; in [3] (read-out: IC50), 0.00676 µM; in [4], “Not Active”; in [5], “Not Active”; at Insulin receptor, “Not Active”. Moreover, the IC50 entry in data set [6] is “Not Active”; on Leukotriene C4 synthase, “Not Active”; against Melanocortin receptor 3, “Not Active”; in data set [7] (read-out: IC50), 3.45 µM; in data set [8], “Not Active”; on Mu-type opioid receptor it was “Not Active”. The concentration for half-maximal inhibition (IC50) entry (in [9]; against Cytochrome P450 2A6) was “Not Active” throughout. Also, the Ki in data set [3] (read-out: Ki) was 0.00152 µM; in data set [4], “Not Active”; in data set [5], “Not Active”; in data set [6] it was “Not Active”; in data set [7] (read-out: Ki), 2.48 µM; on Cytochrome P450 2A6 it was “Not Active”.
Regarding `COc1cc(C(=O)NC2CCCNC2)cc(OC)c1OC` (configuration not stated) [TROXIPIDE], the IC50 result (in data set [1]; in [2]; in data set [3]; in data set [4]; in data set [5]; on Insulin receptor) was “Not Active” in each case. For the same molecule, the IC50 result (in data set [6]; on Leukotriene C4 synthase; at Melanocortin receptor 3; in data set [7] (cho-k1); in [8]; at Mu-type opioid receptor) was “Not Active” in each case. The IC50 entry (in data set [9]; on Cytochrome P450 2A6) was “Not Active” each time. The Ki entry (in data set [3]; in [4]; in data set [5]; in [6]; at Cytochrome P450 2A6) was “Not Active” throughout.
As to `CC(C)[C@H](N)C(=O)OCCOCn1cnc2c(=O)nc(N)[nH]c21` [VALACYCLOVIR], the IC50 result (in [1]; in data set [2]; in data set [3]; in [4]; in [5]; against Insulin receptor) was “Not Active” each time. For the same molecule, the IC50 entry (in data set [6]; against Leukotriene C4 synthase; at Melanocortin receptor 3; in [7] (cho-k1); in [8]; on Mu-type opioid receptor) was “Not Active” throughout. The IC50 entry (in data set [9]; at Cytochrome P450 2A6) was “Not Active” throughout. The inhibitory constant (Ki) entry (in data set [3]; in data set [4]; in [5]; in [6]; at Cytochrome P450 2A6) was “Not Active” in each case.
For the molecule `CN[C@H](CC(C)C)C(=O)N[C@H]1C(=O)N[C@@H](CC(N)=O)C(=O)N[C@H]2C(=O)N[C@H]3C(=O)N[C@H](C(=O)N[C@H](C(=O)O)c4cc(O)cc(O)c4-c4cc3ccc4O)[C@H](O)c3ccc(c(Cl)c3)Oc3cc2cc(c3O[C@@H]2O[C@H](CO)[C@@H](O)[C@H](O)[C@H]2O[C@H]2C[C@](C)(N)[C@H](O)[C@H](C)O2)Oc2ccc(cc2Cl)[C@H]1O` [VANCOMYCIN], the IC50 result (in data set [1]; in data set [2]; in data set [3]; in data set [4]; in data set [5]; against Insulin receptor) was “Not Active” each time. Moreover, the IC50 entry (in [6]; on Leukotriene C4 synthase; against Melanocortin receptor 3; in [7] (cho-k1); in data set [8]; on Mu-type opioid receptor) was “Not Active” throughout. The IC50 result (in data set [9]; at Cytochrome P450 2A6) was “Not Active” each time. The Ki result (in data set [3]; in data set [4]; in data set [5]; in data set [6]; at Cytochrome P450 2A6) was “Not Active” throughout.

What is called IC50 is the midpoint of a concentration-inhibition curve. A word on the Ki: it is a dissociation constant, usually derived from enzyme kinetics or from competition with a known ligand.
